The target in experiment [1] is human CYP11B2 (Homo sapiens (Human), UniProt P19099). Description: G-402 cellular enzyme assay, human CYP11B2 (aldosterone release). The format is cell-based. The conditions noted are these: G-402 cells expressing human CYP11B2; 1 μM Deoxycorticosterone; aldosterone in supernatant after 16 h. From the text:
(§1) Herein we identified the use of the G-402 cell line as a host cell to ectopically express (transiently or stably) enzymes of the CYP11 family. Specifically we developed stable G-402 cells expressing ectopically human CYP11B1, human CYP11B2, human CYP11A1, cynmolgus CYP11B1 or cynomolgus CYP11B2 enzyme activity. Importantly the identified cell line G-402 expresses co-factors (adrenodoxin and adrenodoxin reductase) important for the activity of the CYP11 family and no relevant enzyme activity of the CYP11 family (in comparison to H295R cells) was detected in these cells. Therefore the G-402 cell line is uniquely suited as a host cell for the ectopic expression of enzymes from the CYP11 family.
(§2) G-402 cells can be obtained from ATCC (CRL-1440) and were originally derived from a renal leiomyoblastoma.
(§3) The expression plasmids contains the ORF for either human/cyno CYP11B1 or CYP11B2 under the control of a suitable promoter (CMV-promoter) and a suitable resistance marker (neomycin). Using standard techniques the expression plasmid is transfected into G-402 cells and these cells are then selected for expressing the given resistance markers. Individual cell-clones are then selected and assessed for displaying the desired enzymatic activity using 11-Deoxycorticosterone (Cyp11B2) or 11-Deoxycortisol (Cyp11B1) as a substrate.
(§4) G-402 cells expressing CYP11 constructs were established as described above and maintained in McCoy's 5a Medium Modified, ATCC Catalog No. 30-2007 containing 10% FCS and 400 μg/ml G418 (Geneticin) at 37° C. under an atmosphere of 5% CO2/95% air. Cellular enzyme assays were performed in DMEM/F12 medium containing 2.5% charcoal treated FCS and appropriate concentration of substrate (0.3-10 uM 11-Deoxycorticosterone, 11-Deoxycortisol or Corticosterone). For assaying enzymatic activity, cells were plated onto 96 well plates and incubated for 16 h. An aliquot of the supernatant is then transferred and analyzed for the concentration of the expected product (Aldosterone for CYP11B2; Cortisol for CYP11B1). The concentrations of these steroids can be determined using HTRF assays from CisBio analyzing either Aldosterone or Cortisol.
(§5) Inhibition of the release of produced steroids can be used as a measure of the respective enzyme inhibition by test compounds added during the cellular enzyme assay. The dose dependent inhibition of enzymatic activity by a compound is calculated by means of plotting added inhibitor concentrations (x-axes) vs. measured steroid/product level (y-axes). The inhibition is then calculated by fitting the following 4-parameter sigmoidal function (Morgan-Mercer-Flodin (MMF) model) to the raw data points using the least squares method:
(§6) [formula] wherein, A is the maximum y value, B is the EC50 factor determined using XLFit, C is the minimum y value and D is the slope value.
(§7) EC50 values for compounds claimed herein were tested with the G402-based assay system described. Cyp11B2 enzyme activity was tested in presence of 1 μM Deoxycorticosterone and variable amounts of inhibitors; Cyp11B1 enzyme activity was tested in presence of 1 μM Deoxycortisol and variable amounts of inhibitors.

Experiment [2] has as its target human CYP11B1 (Homo sapiens (Human), UniProt P15538). The experiment is described as follows: G-402 cellular enzyme assay, human CYP11B1 (cortisol release). The class given is cell-based. As to conditions: G-402 cells expressing human CYP11B1; 1 μM Deoxycortisol; cortisol in supernatant after 16 h.
Excerpt: as §1, §2, §3, §4, §5, §6, §7

A value given as a limit tells only on which side of the number the result lay.

Chain of human CYP11B1 (P15538 25-503): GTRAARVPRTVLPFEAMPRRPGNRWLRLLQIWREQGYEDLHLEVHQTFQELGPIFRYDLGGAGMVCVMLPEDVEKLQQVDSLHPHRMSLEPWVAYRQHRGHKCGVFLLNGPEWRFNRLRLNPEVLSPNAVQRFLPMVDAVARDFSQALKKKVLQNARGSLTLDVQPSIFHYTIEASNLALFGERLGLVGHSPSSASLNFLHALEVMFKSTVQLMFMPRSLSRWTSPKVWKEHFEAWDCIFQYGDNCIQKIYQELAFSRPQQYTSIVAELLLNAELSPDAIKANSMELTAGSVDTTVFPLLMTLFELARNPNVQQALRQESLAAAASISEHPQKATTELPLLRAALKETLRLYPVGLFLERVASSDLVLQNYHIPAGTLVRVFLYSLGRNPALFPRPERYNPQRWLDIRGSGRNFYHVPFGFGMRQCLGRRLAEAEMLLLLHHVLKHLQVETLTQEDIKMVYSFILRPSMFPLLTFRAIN
Chain of human CYP11B2 (P19099 25-503): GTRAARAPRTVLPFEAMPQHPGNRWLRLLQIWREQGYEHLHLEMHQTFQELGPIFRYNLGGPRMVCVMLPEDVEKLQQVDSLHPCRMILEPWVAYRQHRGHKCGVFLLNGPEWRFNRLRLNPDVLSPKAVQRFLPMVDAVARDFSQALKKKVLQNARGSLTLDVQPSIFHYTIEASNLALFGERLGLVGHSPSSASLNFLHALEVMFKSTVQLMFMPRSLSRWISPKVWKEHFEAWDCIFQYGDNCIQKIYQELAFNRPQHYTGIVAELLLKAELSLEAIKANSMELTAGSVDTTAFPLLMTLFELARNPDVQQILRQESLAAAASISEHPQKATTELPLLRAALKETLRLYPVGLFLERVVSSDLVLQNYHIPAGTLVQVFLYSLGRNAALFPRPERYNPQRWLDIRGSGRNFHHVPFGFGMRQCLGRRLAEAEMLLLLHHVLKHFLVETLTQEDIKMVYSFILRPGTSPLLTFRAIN

In general, EC50 refers to the midpoint of the concentration-response curve. High values mean a less potent agent, low ones a more potent agent. For `Cc1ccncc1C(=O)N1CC2(C1)CN(c1cncc(N3C(=O)c4ccc(Cl)cc4C3(C)C)c1)C2` [Example 7, 5-Chloro-3,3-dimethyl-2-[5-[2-(4-methylpyridine-3-carbonyl)-2,6-diazaspiro[3.3]heptan-6-yl]-3-pyridyl]isoindolin-1-one], the EC50 in experiment [1] is 0.0138 nM; in experiment [2] it was 25.7 nM.

For `Cn1cc(C(=O)N2CC3(C2)CN(c2cncc(N4C(=O)c5ccc(Cl)cc5C4(C)C)c2)C3)c(C(F)F)n1` [Example 35, 5-Chloro-2-[5-[2-[3-(difluoromethyl)-1-methyl-pyrazole-4-carbonyl]-2,6-diazaspiro[3.3]heptan-6-yl]-3-pyridyl]-3,3-dimethyl-isoindolin-1-one], the EC50 was found to be 0.333 nM in experiment [1] and 29.5 nM in experiment [2].

As for `CC(C)n1cc(C(=O)N2CC3(C2)CN(c2cncc(N4C(=O)c5ccc(Cl)cc5C4(C)C)c2)C3)cn1` [Example 3, 5-Chloro-2-[5-[2-(1-isopropylpyrazole-4-carbonyl)-2,6-diazaspiro[3.3]heptan-6-yl]-3-pyridyl]-3,3-dimethyl-isoindolin-1-one], the figures for the EC50 in experiment [1] and in experiment [2] were 0.0083 nM and 11.1 nM, respectively.

Consider `Cn1cc(C(=O)N2CC3(C2)CN(c2cncc(N4CCc5cc(Cl)ccc5C4=O)c2)C3)cn1` [Example 53, 6-Chloro-2-[5-[2-(1-methylpyrazole-4-carbonyl)-2,6-diazaspiro[3.3]heptan-6-yl]-3-pyridyl]-3,4-dihydroisoquinolin-1-one], for which the EC50 in experiment [1] turned out to be 0.0459 nM; in experiment [2], 14.6 nM.

Turning to `COc1ccncc1C(=O)N1CC2(C1)CN(c1cncc(N3C(=O)c4ccc(Cl)cc4C3(C)C)c1)C2` [Example 24, 5-Chloro-2-[5-[2-(4-methoxypyridine-3-carbonyl)-2,6-diazaspiro[3.3]heptan-6-yl]-3-pyridyl]-3,3-dimethyl-isoindolin-1-one], the values for the EC50 in experiment [1] and in experiment [2] were 0.0449 nM and 17.2 nM, respectively.

As for `CCn1cc(C(=O)N2CC3(C2)CN(c2cncc(N4C(=O)c5ccc(C#N)cc5C4(C)C)c2)C3)cn1` [Example 9, 2-[5-[2-(1-Ethylpyrazole-4-carbonyl)-2,6-diazaspiro[3.3]heptan-6-yl]-3-pyridyl]-3,3-dimethyl-1-oxo-isoindoline-5-carbonitrile], the EC50 amounted to 0.009 nM in experiment [1] and 24.4 nM in experiment [2].

On to `Cc1cnc(C(=O)N2CC3(C2)CN(c2cncc(N4C(=O)c5ccc(Cl)cc5C4(C)C)c2)C3)nc1` [Example 34, 5-Chloro-3,3-dimethyl-2-[5-[2-(5-methylpyrimidine-2-carbonyl)-2,6-diazaspiro[3.3]heptan-6-yl]-3-pyridyl]isoindolin-1-one], for which the EC50 is 0.097 nM in experiment [1] and 9.55 nM in experiment [2].

For `Cc1oncc1C(=O)N1CC2(C1)CN(c1cncc(N3C(=O)c4ccc(Cl)cc4C3(C)C)c1)C2` [Example 39, 5-Chloro-3,3-dimethyl-2-[5-[2-(5-methylisoxazole-4-carbonyl)-2,6-diazaspiro[3.3]heptan-6-yl]-3-pyridyl]isoindolin-1-one], the EC50 in experiment [1] amounted to 0.0282 nM; in experiment [2], 9.68 nM.

Take `Cc1ncnc(C)c1C(=O)N1CC2(C1)CN(c1cncc(N3C(=O)c4ccc(Cl)cc4C3(C)C)c1)C2` [Example 48, 5-Chloro-2-[5-[2-(4,6-dimethylpyrimidine-5-carbonyl)-2,6-diazaspiro[3.3]heptan-6-yl]-3-pyridyl]-3,3-dimethyl-isoindolin-1-one]: the EC50 is 0.239 nM in experiment [1] and > 30 nM in experiment [2].

Take `Cc1ccncc1C(=O)N1CCC2(CC1)CN(c1cncc(N3C(=O)c4ccc(Cl)cc4C3(C)C)c1)C2` [Example 57, 5-Chloro-3,3-dimethyl-2-[5-[7-(4-methylpyridine-3-carbonyl)-2,7-diazaspiro[3.5]nonan-2-yl]-3-pyridyl]isoindolin-1-one]: the figures for the EC50 in experiment [1] and in experiment [2] were 0.049 nM and 9.72 nM, respectively.

Turning to `Cc1ncoc1C(=O)N1CC2(C1)CN(c1cncc(N3C(=O)c4ccc(Cl)cc4C3(C)C)c1)C2` [Example 41, 5-Chloro-3,3-dimethyl-2-[5-[2-(4-methyloxazole-5-carbonyl)-2,6-diazaspiro[3.3]heptan-6-yl]-3-pyridyl]isoindolin-1-one], the EC50 in experiment [1] was 0.109 nM; in experiment [2] it was 28.4 nM.

On to `CC1(C)c2cc(Cl)ccc2C(=O)N1c1cncc(N2CC3(CN(C(=O)c4cncnc4)C3)C2)c1` [Example 40, 5-Chloro-3,3-dimethyl-2-[5-[2-(pyrimidine-5-carbonyl)-2,6-diazaspiro[3.3]heptan-6-yl]-3-pyridyl]isoindolin-1-one], for which the EC50 in experiment [1] was 0.0542 nM; in experiment [2], 12 nM.

As for `Cc1ncc(C(=O)N2CC3(C2)CN(c2cncc(N4C(=O)c5ccc(Cl)cc5C4(C)C)c2)C3)o1` [Example 43, 5-Chloro-3,3-dimethyl-2-[5-[2-(2-methyloxazole-5-carbonyl)-2,6-diazaspiro[3.3]heptan-6-yl]-3-pyridyl]isoindolin-1-one], the EC50 was found to be 0.018 nM in experiment [1] and 18 nM in experiment [2].

`Cn1cncc1C(=O)N1CC2(C1)CN(c1cncc(N3C(=O)c4ccc(Cl)cc4C3(C)C)c1)C2` [Example 6, 5-Chloro-3,3-dimethyl-2-[5-[2-(3-methylimidazole-4-carbonyl)-2,6-diazaspiro[3.3]heptan-6-yl]-3-pyridyl]isoindolin-1-one]: the results for the EC50 in experiment [1] and in experiment [2] were 0.0117 nM and 7.94 nM, respectively.

Take `CC(C)n1cc(C(=O)N2CC3(C2)CN(c2cncc(N4C(=O)c5ccc(C#N)cc5C4(C)C)c2)C3)cn1` [Example 10, 2-[5-[2-(1-Isopropylpyrazole-4-carbonyl)-2,6-diazaspiro[3.3]heptan-6-yl]-3-pyridyl]-3,3-dimethyl-1-oxo-isoindoline-5-carbonitrile]: the EC50 in experiment [1] worked out at 0.0155 nM; in experiment [2] it was 25.6 nM.

For the molecule `Cc1ccncc1C(=O)N1CC2(C1)CN(c1cncc(N3C(=O)c4ccc(C#N)cc4C3(C)C)c1)C2` [Example 14, 3,3-Dimethyl-2-[5-[2-(4-methylpyridine-3-carbonyl)-2,6-diazaspiro[3.3]heptan-6-yl]-3-pyridyl]-1-oxo-isoindoline-5-carbonitrile], the EC50 in experiment [1] stood at 0.0407 nM; in experiment [2], 21 nM.

In turn, `Cn1cc(C(=O)N2CCC3(CC2)CN(c2cncc(N4C(=O)c5ccc(Cl)cc5C4(C)C)c2)C3)cn1` [Example 56, 5-Chloro-3,3-dimethyl-2-[5-[7-(1-methylpyrazole-4-carbonyl)-2,7-diazaspiro[3.5]nonan-2-yl]-3-pyridyl]isoindolin-1-one] came in with an EC50 in experiment [2] of 18.8 nM.

For the molecule `CCn1cc(C(=O)N2CCC3(CC2)CN(c2cncc(N4C(=O)c5ccc(Cl)cc5C4(C)C)c2)C3)cn1` [Example 58, 5-Chloro-2-[5-[7-(1-ethylpyrazole-4-carbonyl)-2,7-diazaspiro[3.5]nonan-2-yl]-3-pyridyl]-3,3-dimethyl-isoindolin-1-one], in experiment [2], the EC50 is 9.64 nM.

As for `Cn1cc(C(=O)N2CC3(CCN(c4cncc(N5C(=O)c6ccc(Cl)cc6C5(C)C)c4)CC3)C2)cn1` [Example 59, 5-Chloro-3,3-dimethyl-2-[5-[2-(1-methylpyrazole-4-carbonyl)-2,7-diazaspiro[3.5]nonan-7-yl]-3-pyridyl]isoindolin-1-one], the midpoint of the response in experiment [2], the EC50, lay at 0.819 nM.

Regarding `Cc1ccncc1C(=O)N1CC2(CCN(c3cncc(N4C(=O)c5ccc(Cl)cc5C4(C)C)c3)CC2)C1` [Example 61, 5-Chloro-3,3-dimethyl-2-[5-[2-(4-methylpyridine-3-carbonyl)-2,7-diazaspiro[3.5]nonan-7-yl]-3-pyridyl]isoindolin-1-one], in experiment [2], the EC50 came out at 2.11 nM. Compared with the last molecule, the EC50 is about 2.6-fold higher.

`CCn1cc(C(=O)N2CC3(CCN(c4cncc(N5C(=O)c6ccc(Cl)cc6C5(C)C)c4)CC3)C2)cn1` [Example 60, 5-Chloro-2-[5-[2-(1-ethylpyrazole-4-carbonyl)-2,7-diazaspiro[3.5]nonan-7-yl]-3-pyridyl]-3,3-dimethyl-isoindolin-1-one] returned an EC50 in experiment [2] of 0.892 nM. This EC50 lies about 2.4-fold lower than the previous one.

The record behind these values is patent US10035804B2, “Spirodiamine derivatives as aldosterone synthase inhibitors” (Hoffmann-La Roche Inc., priority 2014, dated 2018).
